Experimental data published in US11000555B2, “Method for preparing a limax compound and therapeutic use thereof” (GUANGXI JIUFU BIOTECHNOLOGY CO., LTD, priority 2017, dated 2021).
Marks after values point to notes of the source that are not given here.

System: mice
Test: Mouse spontaneous activity test
Assay type: in vivo, Kunming mice
Experimental: Forty Kunming mice, half males and half females, were fasted for 12 h but free to drink water. The mice were randomly divided into four groups: a blank control group, a low does Compound group (0.4 g/kg, ig), a high dose Compound group (0.8 g/kg, ig) and a positive drug control group (Estazolam, 2 mg/kg). The mice were placed into the YLS-1A multifunctional recorder for spontaneous activities of small animals. After 5 minutes of adaptation, the number of the mice's spontaneous activities before administration were recorded, and the recording lasted for 10 minutes. The room was kept quiet during recording, at a room temperature of 20-24° C. After this, each group of mice was administered according to the above doses, and the number of spontaneous activities within 10 min were recorded 45 min later. The blank control group was given the same volume of normal saline (ig).

In the case of `CC1(C)O[C@H]2CC[C@@]3(C)[C@@H]([C@@H](O)[C@H](O)[C@@H]3[C@@](C)(O)CC[C@@H]3OC(C)(C)[C@H]4CC[C@]3(C)O4)[C@]2(C)CC[C@H]1O` [the compound, limaxol A], the “Effect on spontaneous activity of mice” value (0.4, 0.8 g/kg, ig) was “significantly reduce the spontaneous activity of mice”, the “Number of spontaneous activities” value (After administration (45 min), high dose 0.8 g/kg ig) was 84.8 ± 31.69*^Δ▴ per 10 min and the “Number of spontaneous activities” value (After administration (45 min), low dose 0.4 g/kg ig) was 104.6 ± 42.12^Δ▴▴ per 10 min. For the same molecule, the “Number of spontaneous activities” value (Before administration, high dose group) was 145.5 ± 82.57 per 10 min and the “Number of spontaneous activities” value (Before administration, low dose group) was 165.5 ± 69.20 per 10 min.
